Columns and labels:
Type in all cases: physicochemical
[1] = Absorption and fluorescence spectra, extinction coefficient, fluorescence quantum yield
Experimental: Absorption spectra were recorded on a Hewlett-Packard 8453 diode array UV-Vis spectrophotometer (Agilent Technologies, Inc., Santa Clara, Calif.), and fluorescence measurements were taken on a SPEX® Fluorolog 2 spectrofluorometer (HORIBA Jobin Yvon, Inc., Edison, N.J.). Melting points are not corrected. NMR spectra were obtained on a Varian Mercury 300 MHz (Varian, Inc., Palo Alto, Calif.) or on a Bruker 300 MHz DRX 300 spectrometer (Bruker Biospin Corp., Billerica, Mass.). Mass spectra were obtained on a Hewlett-Packard 1100 high-performance liquid chromatograph equipped with an 1100 mass selective detector (MS-ESI) (Agilent Technologies, Inc.).
With decreasing solvent polarity, the absorption maximum of dyes 1a-b, 2a-d shifted to longer wavelengths, and the intensity of the transition increased (Table 10, FIG. 11).
The SCRF/VSCRF predicted emission energies and the solute dipole moments before and after the vertical emission process are given in Table 16. The dipole moments of AI-BA(4) and AI-SO(4) are further decreased on the S1 surface after geometry relaxation (in MeOH solution), and then increased during the S1→S0 transition. This observation is consistent with the blue shifts of the emission bands of AI-BA(4) and AI-SO(4) with increasing solvent polarity from C6H6 to MeOH. By contrast, the dipole moment of I-SO further decreases after S1 state geometry relaxation, and then decreases during the vertical emission process. This observation also is in agreement with the red shift of the I-SO emission band with increasing solvent polarity from C6H6 to MeOH. Similarly to the absorption case, a negligible red shift (ΔEem=0.017 eV) was predicted for the emission band of I-TBA with increasing solvent polarity. A small red shift from C6H6 to DMF (with ΔEem=0.020 eV, or Δλmax=6 nm) is observed. The nearly equal emission energy observed in C6H6 and MeOH can again result in the explicit interactions between the solute and solvent molecules.

[2] = Photobleaching under constant illumination from a halogen tungsten lamp filtered through glass; conditions: MeOH; for kph(rel) (relative rate of photobleaching): with respect to standard I-TBA in MeOH
From the text: The photostability of dyes can be important for applications in living cells. The mechanism of photobleaching for merocyanines of varying structure has been examined See Toutchkine et al., J. Am. Chem. Soc. 125:4132-4145 (2003). The photostability of the presently disclosed dyes was characterized by exposing them to constant illumination from a halogen tungsten lamp filtered through glass. This broad spectrum light source provided essentially equal intensity throughout the spectral range where the dyes absorb and where they would be irradiated in vivo (about 600 nm to about 650 nm).

[3] = Relative rate of reaction with chemically generated singlet oxygen in DMSO; conditions: 2.5 mM, 1O2 from 1,4-dimethylnaphtalene-1,4-endoperoxide
Experimental: The bleaching rates for the dyes differed by two orders of magnitude. The relative rate constants kr (rel) for product formation during reaction with singlet oxygen were measured by comparing the percent conversions for dyes dissolved in DMSO containing a fixed amount of ^1O2 (2.5 mM solutions; ^1O2 generated by decomposition of 1,4-dimethylnaphtalene-1,4-endoperoxide). The rates were generally higher for dyes with a polar ground state (1a, 2a, 2b, 2d) than for the dyes with their ground state at the “cyanine limit” (3, 4). […] Olefins without allylic hydrogens react with singlet oxygen to form dioxetanes. Dioxetanes are unstable and decompose, to form two carbonyl compounds.

Question: With `Cn1c([O-])c(/C=C/C=C/c2cc[n+]3c(c2)C(C)(C)c2ccccc2-3)c(=O)n(C)c1=O` [AI-BA] as the molecule, how does the “Absorption energy Eabs Exp” value ([1]; C6H6) read?
Answer: 1.873 eV

Question: What about the “Emission energy Eem Exp” value ([1]; C6H6) of the same molecule?
Answer: 1.851 eV

Question: What about the “Absorption energy Eabs Exp” value ([1]; MeOH) of the same molecule?
Answer: 2.120 eV

Question: And the “Emission energy Eem Exp” value ([1]; MeOH)?
Answer: 2.006 eV

Question: What about the “Observed absorption (ε)” value ([1]; Table 10, BuOH) of the same molecule?
Answer: (154000)

Question: And the “Observed absorption λmax” value ([1]; Table 10, BuOH)?
Answer: 615 nm

Question: What about the “Observed absorption (ε)” value ([1]; Table 10, C6H6) of the same molecule?
Answer: ±201000)

Question: And the “Observed absorption λmax” value ([1]; Table 10, C6H6)?
Answer: 662 nm

Question: What about the “Observed absorption (ε)” value ([1]; Table 10, CH2Cl2) of the same molecule?
Answer: (224000)

Question: And the “Observed absorption λmax” value ([1]; Table 10, CH2Cl2)?
Answer: 647 nm

Question: And the “Observed absorption (ε)” value ([1]; Table 10, CH3CN)?
Answer: (141000)

Question: What about the “Observed absorption λmax” value ([1]; Table 10, CH3CN) of the same molecule?
Answer: 621 nm

Question: What about the “Observed absorption (ε)” value ([1]; Table 10, DMF) of the same molecule?
Answer: (146000)

Question: What about the “Observed absorption λmax” value ([1]; Table 10, DMF) of the same molecule?
Answer: 625 nm

Question: And the “Observed absorption (ε)” value ([1]; Table 10, DMSO)?
Answer: (122000)

Question: What about the “Observed absorption λmax” value ([1]; Table 10, DMSO) of the same molecule?
Answer: 617 nm

Question: What about the “Observed absorption (ε)” value ([1]; Table 10, EtOH) of the same molecule?
Answer: (104000)

Question: And the “Observed absorption λmax” value ([1]; Table 10, EtOH)?
Answer: 604 nm

Question: And the “Observed absorption (ε)” value ([1]; Table 10, MeOH)?
Answer: (83000)

Question: What about the “Observed absorption λmax” value ([1]; Table 10, MeOH) of the same molecule?
Answer: 585 nm

Question: What about the “Observed absorption (ε)” value ([1]; Table 10, OcOH) of the same molecule?
Answer: (143000)

Question: And the “Observed absorption λmax” value ([1]; Table 10, OcOH)?
Answer: 628 nm

Question: And the “Observed absorption (ε)” value ([1]; Table 10, i-PrOH)?
Answer: (132000)

Question: And the “Observed absorption λmax” value ([1]; Table 10, i-PrOH)?
Answer: 614 nm

Question: And the “Absorption Exp wavelength” value ([1]; Table 12, C6H6)?
Answer: 662 nm

Question: And the “Absorption Exp wavelength” value ([1]; Table 12, MeOH)?
Answer: 585 nm

Question: What about the “Observed emission (Φ)” value ([1]; Table 15, BuOH) of the same molecule?
Answer: 0.29

Question: And the “Observed emission λmax” value ([1]; Table 15, BuOH)?
Answer: 654 nm

Question: What about the “Observed emission (Φ)” value ([1]; Table 15, C6H6) of the same molecule?
Answer: 0.01

Question: What about the “Observed emission λmax” value ([1]; Table 15, C6H6) of the same molecule?
Answer: 670 nm

Question: And the “Observed emission (Φ)” value ([1]; Table 15, CH2Cl2)?
Answer: 0.03

Question: What about the “Observed emission λmax” value ([1]; Table 15, CH2Cl2) of the same molecule?
Answer: 664 nm

Question: And the “Observed emission (Φ)” value ([1]; Table 15, CH3CN)?
Answer: 0.05

Question: What about the “Observed emission λmax” value ([1]; Table 15, CH3CN) of the same molecule?
Answer: 652 nm

Question: What about the “Observed emission (Φ)” value ([1]; Table 15, DMF) of the same molecule?
Answer: 0.26

Question: What about the “Observed emission λmax” value ([1]; Table 15, DMF) of the same molecule?
Answer: 658 nm

Question: And the “Observed emission (Φ)” value ([1]; Table 15, DMSO)?
Answer: 0.23

Question: What about the “Observed emission λmax” value ([1]; Table 15, DMSO) of the same molecule?
Answer: 657 nm

Question: And the “Observed emission (Φ)” value ([1]; Table 15, EtOH)?
Answer: 0.19

Question: And the “Observed emission λmax” value ([1]; Table 15, EtOH)?
Answer: 651 nm

Question: What about the “Observed emission (Φ)” value ([1]; Table 15, MeOH) of the same molecule?
Answer: 0.52

Question: What about the “Observed emission λmax” value ([1]; Table 15, MeOH) of the same molecule?
Answer: 618 nm

Question: What about the “Observed emission (Φ)” value ([1]; Table 15, OcOH) of the same molecule?
Answer: 0.64

Question: What about the “Observed emission λmax” value ([1]; Table 15, OcOH) of the same molecule?
Answer: 656 nm

Question: And the “Observed emission (Φ)” value ([1]; Table 15, i-PrOH)?
Answer: 0.22

Question: And the “Observed emission λmax” value ([1]; Table 15, i-PrOH)?
Answer: 652 nm

Question: What about the “Eabs(MeOH)-Eabs(C6H6) Exp” value ([1]; blue shift of absorption band C6H6 to MeOH) of the same molecule?
Answer: 0.247 eV

Question: What about the “kph * 10^6 (absolute rate of photobleaching)” value [2] of the same molecule?
Answer: 68 s^−1

Question: What about the “kph(rel) (relative rate of photobleaching)” value [2] of the same molecule?
Answer: 200

Question: What about the “kr(rel) (relative rate constants for product formation during reaction with singlet oxygen produced chemically)” value [3] of the same molecule?
Answer: 25.6

Question: Which “Observed absorption (ε)” value ([1]; Table 10, BuOH) does the source give for `CC1(C)c2ccccc2-[n+]2ccc(/C=C/C3=C([O-])c4ccccc4S3(=O)=O)cc21` [AI-SO(2)] here?
Answer: (120000)

Question: And the “Observed absorption λmax” value ([1]; Table 10, BuOH)?
Answer: 554 nm

Question: What about the “Observed absorption (ε)” value ([1]; Table 10, C6H6) of the same molecule?
Answer: (235000)

Question: What about the “Observed absorption λmax” value ([1]; Table 10, C6H6) of the same molecule?
Answer: 570 nm

Question: And the “Observed absorption (ε)” value ([1]; Table 10, CH2Cl2)?
Answer: (218000)

Question: What about the “Observed absorption λmax” value ([1]; Table 10, CH2Cl2) of the same molecule?
Answer: 561 nm

Question: And the “Observed absorption (ε)” value ([1]; Table 10, CH3CN)?
Answer: (149000)

Question: What about the “Observed absorption λmax” value ([1]; Table 10, CH3CN) of the same molecule?
Answer: 549 nm

Question: And the “Observed absorption (ε)” value ([1]; Table 10, DMF)?
Answer: (157000)

Question: And the “Observed absorption λmax” value ([1]; Table 10, DMF)?
Answer: 556 nm

Question: And the “Observed absorption (ε)” value ([1]; Table 10, DMSO)?
Answer: (126000)

Question: What about the “Observed absorption λmax” value ([1]; Table 10, DMSO) of the same molecule?
Answer: 555 nm

Question: And the “Observed absorption (ε)” value ([1]; Table 10, EtOH)?
Answer: (111000)

Question: And the “Observed absorption λmax” value ([1]; Table 10, EtOH)?
Answer: 549 nm

Question: What about the “Observed absorption (ε)” value ([1]; Table 10, MeOH) of the same molecule?
Answer: (92000)

Question: And the “Observed absorption λmax” value ([1]; Table 10, MeOH)?
Answer: 542 nm

Question: What about the “Observed absorption (ε)” value ([1]; Table 10, OcOH) of the same molecule?
Answer: (150000)

Question: And the “Observed absorption λmax” value ([1]; Table 10, OcOH)?
Answer: 559 nm

Question: And the “Observed absorption (ε)” value ([1]; Table 10, i-PrOH)?
Answer: (132000)

Question: And the “Observed absorption λmax” value ([1]; Table 10, i-PrOH)?
Answer: 553 nm

Question: What about the “Observed emission (Φ)” value ([1]; Table 15, BuOH) of the same molecule?
Answer: 0.16

Question: And the “Observed emission λmax” value ([1]; Table 15, BuOH)?
Answer: 567 nm

Question: What about the “Observed emission (Φ)” value ([1]; Table 15, C6H6) of the same molecule?
Answer: 0.02

Question: And the “Observed emission λmax” value ([1]; Table 15, C6H6)?
Answer: 577 nm

Question: What about the “Observed emission (Φ)” value ([1]; Table 15, CH2Cl2) of the same molecule?
Answer: 0.06

Question: And the “Observed emission λmax” value ([1]; Table 15, CH2Cl2)?
Answer: 571 nm

Question: What about the “Observed emission (Φ)” value ([1]; Table 15, CH3CN) of the same molecule?
Answer: 0.06

Question: What about the “Observed emission λmax” value ([1]; Table 15, CH3CN) of the same molecule?
Answer: 561 nm

Question: What about the “Observed emission (Φ)” value ([1]; Table 15, DMF) of the same molecule?
Answer: 0.16

Question: And the “Observed emission λmax” value ([1]; Table 15, DMF)?
Answer: 567 nm

Question: What about the “Observed emission (Φ)” value ([1]; Table 15, DMSO) of the same molecule?
Answer: 0.24

Question: What about the “Observed emission λmax” value ([1]; Table 15, DMSO) of the same molecule?
Answer: 567 nm

Question: What about the “Observed emission (Φ)” value ([1]; Table 15, EtOH) of the same molecule?
Answer: 0.09

Question: And the “Observed emission λmax” value ([1]; Table 15, EtOH)?
Answer: 563 nm

Question: What about the “Observed emission (Φ)” value ([1]; Table 15, MeOH) of the same molecule?
Answer: 0.05

Question: And the “Observed emission λmax” value ([1]; Table 15, MeOH)?
Answer: 561 nm

Question: What about the “Observed emission (Φ)” value ([1]; Table 15, OcOH) of the same molecule?
Answer: 0.21

Question: What about the “Observed emission λmax” value ([1]; Table 15, OcOH) of the same molecule?
Answer: 569 nm

Question: And the “Observed emission (Φ)” value ([1]; Table 15, i-PrOH)?
Answer: 0.13

Question: And the “Observed emission λmax” value ([1]; Table 15, i-PrOH)?
Answer: 565 nm

Question: What about the “kph * 10^6 (absolute rate of photobleaching)” value [2] of the same molecule?
Answer: 0.7 s^−1

Question: What about the “kph(rel) (relative rate of photobleaching)” value [2] of the same molecule?
Answer: 2.1

Question: What about the “kr(rel) (relative rate constants for product formation during reaction with singlet oxygen produced chemically)” value [3] of the same molecule?
Answer: 20.3
